In PMC7144376, “Antiviral Effects of Novel 2-Benzoxyl-Phenylpyridine Derivatives” (Molecules, 2020):

What was measured:
[1] = Cytotoxicity on uninfected HeLa cells (MTT, 48 h); type: cell-based; conditions: human, read-out: CC50 (reduce cell viability by 50%), ADV7 host cells
Description: (§1) Human laryngeal carcinoma cells (Hep-2) and human cervical carcinoma cells (HeLa) were maintained in DMEM (Gibco) supplemented with 10% fetal bovine serum (FBS; Gibco), 100 U/mL penicillin and streptomycin, and 2 mM L-glutamine.
(§2) The antiviral activities of compounds against CVB3 and ADV7 were determined by measuring their inhibition of virus-induced CPEs in acutely infected Hep-2 and HeLa cells, respectively. Confluent cell monolayers in 96-well plates were infected with 100 TCID50 of CVB3 or ADV7 for 1.5 h at 37 °C, inocula were aspirated, and the cells then were incubated with various concentrations of compounds at 37 °C, 5% CO2, for 48 h. CPEs were observed by microscopy and the viability of cells was determined using MTT assays. The concentrations of test compounds required to achieve 50% protection from virus-induced cytopathogenicity (EC50 values) were determined. Adverse effects of tested compounds on host cells were also assessed using the MTT method after exposing uninfected cells to various concentrations of test compounds for 48 h at 37 °C. The CC50 values of compounds were calculated using SPSS software and selectivity indices were the ratio of CC50:EC50. Each experiment was performed in triplicate and at least three times, independently.

[2] = Cytotoxicity on uninfected Hep-2 cells (MTT, 48 h); type: cell-based; conditions: human, read-out: CC50 (reduce cell viability by 50%), CVB3 host cells
Description: as §1, §2

CVB3 [3] = assay: CVB3 progeny virus yield in Hep-2 cells (TCID50 titration); type: cell-based, Coxsackievirus B3; conditions: 36 h, 120 μM W-9, 160 μM W-13, 160 μM W-15, 160 μM ribavirin
Description: Based on their antiviral activities and therapeutic selectivity indices, the effects on virus progeny yields of compounds W9, W13, and W15 were further investigated, using ribavirin as a positive control drug. To this end, confluent monolayers of Hep-2 or HeLa cells in 96-well plates were infected with 100 × median tissue culture infective dose (TCID50) of CVB3 or ADV7, then treated with 120 μM W-9, 160 μM W-13, 160 μM W-15, or 160 μM ribavirin. After 36 h, culture media and cell lysates were collected, following freeze-thaw cycles, and then subjected to virus titration.
Figure 2 The effects of W9, W13, and W15 on progeny virus production. Hep-2 cells infected with 100 TCID50 of CVB3 (a), or HeLa cells infected with 100 TCID50 of ADV7(b), were incubated in the absence (virus control) or presence of 120 μM W-9, 160 μM W-13, 160 μM W-15, or 160 μM ribavirin for 36 h, and the culture media and cell lysates then harvested for virus titration. Viral titers are presented as Log10 TCID50/mL. * p < 0.05; ** p < 0.01, compared with the virus control group.
CVB3 or ADV7 suspensions, serially diluted 10-fold with DMEM containing 2% FBS (DMEM maintenance medium, MM), were inoculated to Hep-2 or HeLa cells in 96-well plates. After 1.5 h incubation at 37 °C in 5% CO2, unbound virus was washed out and the MM was added to the cells. After 2 days, infected cells were monitored for CPEs and virus titers were calculated using the Reed–Muench method.

CVB3 [4] = assay: Analysis of effective stage (prevention, mixture, treatment modes); type: cell-based, Coxsackievirus B3; conditions: Hep-2 cells, cell viability after 48 h; for inhibition of CVB3, compound added just before or during infection: prevention and mixture modes; for inhibitory effect against CVB3, compound added post infection: treatment mode
Description: The mechanisms by which W9, W13, and W15 inhibit CVB3 infection were further investigated by three different approaches, using ribavirin as a positive control. Antiviral effects against CVB3 were detected by measuring cell viability after 48 h of infection when cells were treated with compounds W9, W13, and W15 before, simultaneously, or after inoculation with CVB3 (100 TCID50).
Figure 3 Analysis of the modes of action of W9, W13, and W15 against CVB3. (a) Analysis of effective stage. The antiviral effects of test compounds against CVB3 were detected by measuring cell viability after 48 h of infection when cells were treated with W9, W13, or W15 before, simultaneously, or after inoculation with CVB3 (100 TCID50). (b) Analysis of the effects on CVB3 adsorption. Mock-, 120 μM W-9-, 160 μM W-13-, 160 μM W-15-, or 160 μM ribavirin-treated CVB3 (10^6 TCID50) was inoculated onto Hep-2 cells and adsorbed for 2 h. Infected cells were then harvested and subjected to virus titration, using the TCID50 method. (c) The effects of test compounds on CVB3 release from Hep-2 cells. Hep-2 cells infected with 100 TCID50 of CVB3 were incubated with test compounds for 12 h, then cells and culture supernatants (intra- and extracellular) analyzed for virus yield, separately or together. Mock, no infection; VC, virus control. Values represent the means ± SDs of three independent experiments. * p < 0.05; ** p < 0.01, compared with the virus control group.
To identify the step in the life cycle of CVB3 that was affected by the compounds, various concentrations of W9, W13, and W15 were added to Hep-2 cells, and the following three treatment procedures conducted: (i) To evaluate preventive effects (prevention mode of action), various concentrations of compounds were added to cells for 2 h at 37 °C, followed by washing with MM before virus infection; (ii) To analyze for inhibition of adsorption (mixture mode of action), a mixture of compound and virus was added to cells for 2 h at 37 °C, followed by washing with MM; (iii) To assess therapeutic effects (treatment mode of action), cells were first infected for 2 h at 37 °C, followed by washing with MM, addition of the compounds, and incubation for the duration of the experiment. For all procedures, cell viability was estimated after 48 h of infection, using MTT assays.

Compound | CC50 at 48 h [1] [µM] | CC50 at 48 h [2] [µM] | reduction in CVB3 virus progeny titer relative to untreated control (CVB3 [3]) | inhibition of CVB3, compound added just before or during infection (CVB3 [4]) | inhibitory effect against CVB3, compound added post infection (CVB3 [4])
NC(=O)c1ncn([C@@H]2O[C@H](CO)[C@@H](O)[C@H]2O)n1 [Ribavirin, reference compound] | 807 | 836 | approximately 2.0 log | – | –
O=C(Oc1cc(Cl)ccc1-c1ccccn1)c1ccccc1 [W9] | 265 ± 28.1 | 148 ± 11.6 | approximately 2.5 log | no significant inhibition | most powerful inhibitory effects
Cc1ccc(OC(=O)C(C)(C)C)c(-c2ccccn2)c1 [W13] | > 372 | 424 ± 26.8 | approximately 2.5 log | no significant inhibition | most powerful inhibitory effects
CC(=O)Oc1ccc(-c2ccccn2)c(OC(=O)c2ccccc2)c1 [W15] | 795 ± 33.8 | 451 ± 32.4 | approximately 2.5 log | no significant inhibition | most powerful inhibitory effects
